Reference: US6352998B2, “Pharmaceutical compositions” (Novartis AG, priority 1997, dated 2002)

Test system: chronic plaque psoriasis
Assay: Topical treatment of chronic plaque psoriasis in humans, once a day
Type: in vivo
Details: topical application of 0.01 to 1% w/w once a day

| Compound | Efficacy in the treatment of chronic plaque psoriasis |
| --- | --- |
| [3S-[3R*[E(1S*,3S*,4S*)],4S*,5R*,8S*,9E,12R*,-14R*,15S*,16R*,18S*,19S*,26aR*]]-5,6,8,11,12,13,14,15,16,17,18,19,24,25,26,26a-hexadecahydro-5,19-dihydroxy-3-(3-hydroxymethylcyclopentyl)-1-methylethenyl)]-14,16-dimethoxy-4,10,12,18,-tetramethyl-8-ethyl-15,19-epoxy-3H-pyrido[2,1-c][1,4]oxaazacyclotricosine-1,7,20,21(4H,23H)-tetrone [Compound 2] | effective |
| CC[C@@H]1/C=C(\C)C[C@H](C)C[C@H](OC)[C@H]2O[C@@](O)(C(=O)C(=O)N3CCCC[C@H]3C(=O)O[C@H](/C(C)=C/[C@@H]3CC[C@@H](O)[C@H](OC)C3)[C@H](C)[C@@H](O)CC1=O)[C@H](C)C[C@@H]2OC (relative stereo) [Compound 3, [3S-[3R*[E(1S*,3S*,4S*)],4S*,5R*,8S*,9E,12R*,14R*,15S*,16R*,18S*,-19S*,26aR*]]-5,6,8,11,12,13,14,15,16,17,18,19,24,25,26,26a-hexadecahydro-5,19-dihydroxy-3-[2-(4-hydroxy-3-methoxy-cyclohexyl)-1-methylethenyl)]-14,16-dimethoxy4,10,12,18,-tetramethyl-8-ethyl-15,19-epoxy-3H-pyrido[2,1-c][1,4]oxaazacyclotricosine-1,7,20,21(4H,23H)-tetrone] | effective |
